# Measured values reported in the supplement of paper PMC13380429.
# Experiments:
# Conditions in all cases: 72 h
# [1] = system: Caco-2; assay: cell viability relative to DMSO; higher = less toxic
# [2] = system: Calu-3; assay: as above
# [3] = system: HepG2; assay: as above
# [4] = system: U2OS; assay: as above
# [5] = system: Vero E6; assay: as above
# [6] = system: Caco-2; assay: relative viability EC50 (midpoint between 100% and the lowest measured viability); higher = less toxic
# [7] = system: Calu-3; assay: as above
# [8] = system: HepG2; assay: as above
# [9] = system: U2OS; assay: as above
# [10] = system: Vero E6; assay: as above
# [11] = system: Caco-2; assay: drug sensitivity score (DSS) for viability; higher = more toxic; extreme values may be limits of the assay
# [12] = system: Calu-3; assay: as above
# [13] = system: HepG2; assay: as above
# [14] = system: U2OS; assay: as above
# [15] = system: Vero E6; assay: as above
SMILES,cell viability ([1]; 1 nM),cell viability ([1]; 10 nM),cell viability ([1]; 100 nM),cell viability ([1]; 1000 nM),cell viability ([1]; 10000 nM),cell viability ([2]; 1 nM),cell viability ([2]; 10 nM),cell viability ([2]; 100 nM),cell viability ([2]; 1000 nM),cell viability ([2]; 10000 nM),cell viability ([3]; 1 nM),cell viability ([3]; 10 nM),cell viability ([3]; 100 nM),cell viability ([3]; 1000 nM),cell viability ([3]; 10000 nM),cell viability ([4]; 1 nM),cell viability ([4]; 10 nM),cell viability ([4]; 100 nM),cell viability ([4]; 1000 nM),cell viability ([4]; 10000 nM),cell viability ([5]; 1 nM),cell viability ([5]; 10 nM),cell viability ([5]; 100 nM),cell viability ([5]; 1000 nM),cell viability ([5]; 10000 nM),relative viability EC50 [6],relative viability EC50 [7],relative viability EC50 [8],relative viability EC50 [9],relative viability EC50 [10],drug sensitivity score [11],drug sensitivity score [12],drug sensitivity score [13],drug sensitivity score [14],drug sensitivity score [15]
Cc1coc2c1C(=O)C(=O)c1c-2ccc2c(C)cccc12 [tanshinone-I],93.1%,97.4%,104%,90.7%,86.2%,93.8%,91.7%,104%,110%,100%,91%,104%,89.4%,111%,105%,97.8%,97.8%,103%,93.9%,95.2%,91.9%,94.9%,90.7%,96.5%,104%,> 10 µM,> 10 µM,> 10 µM,> 10 µM,> 10 µM,0.7,0,0,0,0
CCCCCNC(=N)N/N=C/c1c[nH]c2ccc(OC)cc12 [tegaserod],83.7%,89.8%,108%,84.7%,96.9%,105%,96.3%,97.9%,91.4%,92.9%,94.6%,94%,109%,105%,114%,94.1%,99.3%,94.6%,97.7%,95.9%,100%,94.4%,97.8%,90.7%,92.8%,> 10 µM,> 10 µM,> 10 µM,> 10 µM,> 10 µM,0,0,0,0,0
O=C(CNC(=O)c1cccc(C(F)(F)F)c1)N[C@@H]1CCN(Cc2ccc(Cl)cc2)C1 [teijin-compound-1],113%,108%,106%,98.8%,78%,95.9%,98.8%,95.9%,94.4%,91.5%,108%,110%,107%,92%,83.8%,95.7%,98.5%,95.6%,99.7%,91.1%,109%,102%,100%,98.1%,94.8%,> 10 µM,> 10 µM,> 10 µM,> 10 µM,> 10 µM,0.9,0,1,0,0
CCOC(=O)[C@H](CCc1ccccc1)N[C@H]1CS[C@H](c2cccs2)CN(CC(=O)O)C1=O [temocapril],99.4%,95.8%,93.2%,93.3%,105%,93.8%,108%,95.5%,103%,102%,103%,98.6%,108%,96.7%,112%,97.7%,101%,94.2%,99.2%,95.4%,98.8%,105%,109%,91.3%,97.8%,> 10 µM,> 10 µM,> 10 µM,> 10 µM,> 10 µM,0,0,0,0,0
COc1cc2c(cc1OC)C1CC(=O)C(CC(C)C)CN1CC2 (stereo not given) [tetrabenazine],97.6%,99.3%,96.3%,96.5%,100%,107%,103%,96.3%,105%,104%,95.1%,99.4%,98.8%,99.9%,105%,95.9%,99.3%,94.7%,93.9%,103%,96.6%,97.8%,96.2%,99.1%,95%,> 10 µM,> 10 µM,> 10 µM,> 10 µM,> 10 µM,0,0,0,0,0
O=C(O)C(=O)c1cn(Cc2ccccc2)c2ccc(-c3ccc(OC(F)(F)F)cc3)cc12 [tiplaxtinin],104%,106%,102%,92.2%,92.8%,113%,95.5%,96.8%,98.6%,104%,104%,98.8%,102%,93.8%,93.1%,94.5%,92.1%,104%,94.7%,96.5%,108%,106%,96.6%,98.2%,81.3%,> 10 µM,> 10 µM,> 10 µM,> 10 µM,> 10 µM,0,0,0,0,0.7
NC[C@H]1O[C@H](O[C@H]2[C@H](O)[C@@H](O[C@H]3O[C@H](CO)[C@@H](O)[C@H](N)[C@H]3O)[C@H](N)C[C@@H]2N)[C@H](N)C[C@@H]1O [tobramycin],90.2%,92.8%,104%,92.6%,106%,99.4%,102%,101%,98.5%,102%,108%,94.5%,104%,97.6%,106%,95%,103%,97.6%,100%,108%,99.6%,101%,100%,95.7%,107%,> 10 µM,> 10 µM,> 10 µM,> 10 µM,> 10 µM,0,0,0,0,0
Cc1cc(-n2c(=O)[nH]c(=O)n(C)c2=O)ccc1Oc1ccc(SC(F)(F)F)cc1 [toltrazuril],104%,109%,105%,97.1%,97.4%,98.8%,83.1%,105%,106%,101%,90.4%,107%,99.5%,95.9%,102%,97.2%,95.2%,93.1%,99.6%,92.1%,99.5%,105%,101%,96.3%,95.8%,> 10 µM,> 10 µM,> 10 µM,> 10 µM,> 10 µM,0,0,0,0,0
CCCc1c(OCCCCc2nnn[nH]2)ccc(C(C)=O)c1O [tomelukast],88.9%,93.9%,97.8%,105%,97.6%,87.4%,105%,107%,102%,104%,95.6%,90.3%,94.5%,82.9%,84.8%,94.9%,103%,98.1%,99.7%,99.6%,94.5%,98.5%,107%,96.6%,106%,> 10 µM,> 10 µM,> 10 µM,> 10 µM,> 10 µM,0,0,1.5,0,0
CN1C(=O)OC(C)(C)C1=O [trimethadione],101%,97.3%,114%,90%,93.3%,96.1%,102%,97.9%,118%,108%,103%,105%,93.6%,80.4%,90%,103%,99.9%,103%,105%,108%,100%,100%,101%,85.1%,104%,> 10 µM,> 10 µM,> 10 µM,> 10 µM,> 10 µM,0,0,3.4,0,0
COc1cc(C[C@@H]2NCCc3cc(O)c(O)cc32)cc(OC)c1OC [trimethoquinol],91.3%,114%,118%,107%,80.3%,91.7%,88.9%,101%,86%,95.7%,110%,99.2%,112%,90.6%,83.5%,89.5%,97%,97.3%,102%,107%,103%,93.1%,108%,93.8%,96.9%,> 10 µM,> 10 µM,> 10 µM,> 10 µM,> 10 µM,0.3,0,1.1,0,0
N#CC(C#N)=Cc1ccc(O)c(O)c1 [tyrphostin-AG-18],88.2%,96.4%,93.9%,89.2%,91.6%,93.5%,104%,105%,107%,111%,93%,96.8%,97.7%,102%,87.9%,96.1%,98.1%,95.2%,96.5%,92.1%,96.4%,92.1%,96.6%,94.9%,94.9%,> 10 µM,> 10 µM,> 10 µM,> 10 µM,> 10 µM,0,0,0,0,0
COc1cc(N)c(Cl)cc1C(=O)NC1CN2CCC1CC2 (stereo not given) [zacopride],101%,97.6%,97.6%,95.7%,110%,96.9%,100%,97%,85%,95.3%,107%,99.5%,102%,100%,109%,92.5%,96.3%,96.7%,98.3%,92.2%,98.9%,92.8%,97.9%,97.4%,106%,> 10 µM,> 10 µM,> 10 µM,> 10 µM,> 10 µM,0,0,0,0,0
